# Patent US20230365647A1 (priority 2020, published 2023)
# Like-named read-outs stand apart in the source and are kept apart here. Where no end group is shown, it is not given here.
# Experiments:
# PLY [1] = target: T1, PLY (Streptococcus pneumoniae serotype 4, UniProt P0C2J9); assay type: binding
# PLY [2] = target: T1, PLY; assay type: cell-based
# PLY [3] = target: T1, PLY; assay type: cell-based; remark: listed apart in the source
# LLO [4] = target: T2, LLO (Listeria monocytogenes serotype 4a, UniProt B8DGM3); assay type: cell-based
# [5] = tested on: pneumococcal strain T4 (TIGR4 of serotype 4); assay type: binding
# S. pneumoniae T4 [6] = assay type: cell-based, Streptococcus pneumoniae
# PLY [7] = target: T1, PLY; assay type: cell-based; remark: listed apart in the source
# PLY [8] = target: T1, PLY; assay type: cell-based; remark: listed apart in the source
# [9] = tested on: wild-type pneumococci T4 (TIGR4); assay type: cell-based
# [10] = tested on: pneumococci, type 2 (D39) or type 4 (T4); assay type: cell-based, Streptococcus pneumoniae
# [11] = tested on: pneumococci of type 4 or type 2; assay type: cell-based, Streptococcus pneumoniae
# S. pneumoniae T4R = assay type: cell-based
# S. pneumoniae T4 [12] = tested on: S. pneumoniae T4; design: species or system zebrafish (Danio renio); conditions: in vivo
# PLY [13] = target: T1, PLY; conditions: for inhibition of PLY-induced hemolysis: human
# LLO [14] = target: T2, LLO; conditions: for inhibition of LLO-induced hemolysis: human
# [15] = mouse, in vivo
# LLO [16] = target: T2, LLO; assay type: binding
# [17] = tested on: human THP-1 derived macrophages; assay type: cell-based
sequence,measurement,setting,value
LVGNIEQNEHSVI [CP2],binding to PLY (ELISA),PLY [1],only background levels of binding
same,protection of THP-1 macrophages from PLY cytolysis (live/dead stain),PLY [2],not
same,cell death of macrophages induced by PLY (LDH release),PLY [3],no significant effect
same,cell death of macrophages induced by LLO (LDH release),LLO [4],no significant effect
same,binding of FITC-labelled peptide to PLY-producing strain T4,[5],did not show any binding
same,hemolytic activity of pneumococcal strain T4,S. pneumoniae T4 [6],no effect
same,LDH release into the supernatant of lung tissue model,PLY [7],did not show any significant reduction
same,release of IL-8 in lung tissue model,PLY [8],not
same,release of TNF-α in lung tissue model,PLY [8],not
same,number of invading bacteria in lung epithelial model (CFU),[9],not
same,number of intracellular bacteria in DCs (CFU),[10],did not show any significant difference
same,intracellular bacteria in DCs (fluorescence microscopy),[11],not
same,co-localization of intracellular T4R with autophagy marker LC3B,S. pneumoniae T4R,did not promote co-localization
same,survival of infected zebrafish embryos,S. pneumoniae T4 [12],did not show any significant effect
same,"PLY-induced hemolysis, residual red blood cell pellet",PLY [13],Complete hemolysis
same,"LLO-induced hemolysis, residual red blood cell pellet",LLO [14],Complete hemolysis
"FTWSDGSPVSYEN [P2, FTWSDGSPVSYEN]",inhibition of PLY-induced hemolysis,PLY [13],up to 50%
same,inhibition of LLO-induced hemolysis,LLO [14],~35%
same,clinical symptoms,[15],did not develop any clinical symptoms
same,toxicity by lung histology analysis,[15],not toxic
"YENWAYGEPNNYQ [P3, YENWAYGEPNNYQ]",binding to PLY (ELISA),PLY [1],bind dose-dependently
same,binding to LLO (ELISA),LLO [16],bound dose-dependently
same,cell death of macrophages induced by PLY (LDH release),PLY [3]; 18 h,significantly reduced cell death
same,cell death of macrophages induced by LLO (LDH release),LLO [4]; 18 h,significantly reduced cell death
same,release of IL-8,[17],significantly reduced
same,release of IL-12,[17],significantly reduced
same,release of TNF-α,[17],significantly reduced
same,"PLY-induced hemolysis, increasing concentrations of the peptides",PLY [13],dose-dependently inhibited
same,inhibition of PLY-induced hemolysis,PLY [13],up to 50%
same,inhibition of LLO-induced hemolysis,LLO [14],~35%
DCTSAGRSDGWLW [CP1],binding to PLY (ELISA),PLY [1],only background levels of binding
same,"PLY-induced hemolysis, residual red blood cell pellet",PLY [13],Complete hemolysis
same,"LLO-induced hemolysis, residual red blood cell pellet",LLO [14],Complete hemolysis
